Source: US9505798B2, “Steroid compounds as RORyt modulators and uses thereof” (New York University, priority 2010, dated 2016)

How the values were obtained:
human memory Th17 cells = settings: 40 μM, 6 days
Protocol: Mononuclear cells were collected from draining lymph nodes of wild-type or IL-23RGFP knock-in heterozygous mice 7 days after MOG(35-55)/CFA injection.
Blood samples were obtained from the New York Blood Center. Mononuclear cells were prepared from buffy coats from healthy adult donors or from cord blood, using FicollPAQUE gradients. CD4^+ T cells were magnetically selected (autoMACS, Miltenyi). Adult memory CD4^+ T cell subsets were further purified as CD3^+CD4^+CD25^− CD45RO^+CCR6^+CD161^+ by cell sorting on a FACSAria (BD). Naive CD4^+ T cells were isolated from cord blood as CD3^+CD4^+CD45RA^+HLA-DR^−CD25^−DAPI^−. Memory cells were activated with anti-CD3/CD28 coated beads (1 bead/cell) in T cell media (see above) supplemented with 100 U/mL IL-2 (Peprotech), 10 ng/mL IL-1b and 10 ng/mL IL-23 (eBioscience). Naive cells were activated with anti-CD3/CD28 beads and cultured with the same cytokines, and TGF-b (0, 0.1, 1, or, 10 ng/mL) (Peprotech), in XVIVO-20 (Lonza) media. […] Naive CD4^+ T cells, cultured in XVIVO-20 media supplemented 100 U/mL IL-2 (Peprotech), were transduced with RORad-IRES-GFP or RORγt-IRES-GFP on day 1 and analyzed on day 6. […]
Blood samples were obtained from the New York Blood Center. […] Naive CD4+ T cells, cultured in XVIVO-20 media supplemented with 100 U/mL IL-2 (Peprotech), were transduced with RORαd-IRES-GFP or RORγt-IRES-GFP on day 1 and analyzed on day 6. […]

[1] = test system: human embryonic kidney 293t cell lines; assay: Toxicity on human embryonic kidney 293T cells; settings: human
Protocol: The following representative compounds are tested for their RORγt inhibitory activity and toxicity.

[2] = test system: experimental autoimmune encephalomyelitis (EAE); assay: Active EAE (MOG35-55/CFA) in C57BL/6 mice; assay type: in vivo, mouse
[3] = target: T1, RORγt binding to Il17a/f and Il23r loci (Mus musculus, UniProt P51450); assay: Chromatin immunoprecipitation of RORγt at target loci in Th17-polarized cells; assay type: cell-based; settings: 10 and 20 μM, ChIP
T1 construct: endogenous in cells; host or cells: mouse Th17-polarized CD4+ T cells

human androgen receptor = target: T2, human androgen receptor (Homo sapiens, UniProt P10275); assay: S2 cell human androgen receptor reporter; assay type: cell-based
T2 construct: expressed in transfected cells; host or cells: Drosophila S2 cells, plasmid pMK33-hAR

[4] = test system: mouse Th17 cell differentiation; assay: In vitro mouse naive CD4+ T cell polarization; assay type: cell-based
Protocol: (§1) Naive CD25^− CD62L^+CD44^low/int cells were sorted from RORγt^fl/fl mice and transduced with control-IRES-GFP (WT) or CRE-IRES-GFP (KO) retrovirus. […] FACS-sorted naive T cells were transduced with retroviral vectors encoding murine RORα-IRES-GFP or RORγt-IRES-GFP on Day 1 (16 h after TCR stimulation) and GFP expressing cells were gated for analysis on Day 5. […] Lymphocytes were isolated on day 21 after disease induction. The cells were stimulated for 4 h with PMA/Ionomycin and stained for surface markers and intracellular cytokines.
(§2) T cells were purified from lymph nodes and spleens of six to eight weeks old B6 mice (Taconic), by magnetically depleting B220^+ cells (autoMACS, Miltenyi), and then sorting CD8^−DAPI^−CD19^−CD4^+CD25^−CD62L^+CD44^low/Int naive T cells on a FACSAria (BD). […] For T cell polarization, 200 μl cells were seeded at 0.4×10^5 cells per mL in 96-well plates pre-coated with anti-CD3ε (5 μg/mL) and anti-CD28 (10 μg/mL). Cells were cultured for 4-5 days in Th17 (TGF-β (0.3 ng/mL), IL-6 (20 ng/mL), and anti-IFN-γ and anti-IL-4 (2 ng/mL)), Th1 (IL-12 (10 ng/mL), IL-2 (10 U/mL) and anti-IL-4 (2 ng/mL)), or Th2 (IL-4 (10 ng/mL), and anti-P35 and anti-IFN-γ 2 ng/mL)) conditions. For ectopic expression ROR proteins, native CD4^+ T cells were infected with retroviral MIGr-control, MIGr-RORα or MIGr-RORγ 24 hrs after activation, and cultured without exogenous cytokines or only with IL-6. At day 1, compounds dissolved in DMSO were added. For cytokine analysis, cells were incubated for 5 hours with phorbol 12-myristate 13-acetate (50 ng/mL; Sigma), ionomycin (500 ng/mL; Sigma) and GolgiStop (BD). Intracellular cytokine staining was performed according to the manufacturer's protocol (Cytofix/Cytoperm buffer set from BD) with alexa647-conjugated anti-IL-17a (eBioscience), and PE-conjugated anti-IFN-γ or anti-IL-4 (eBioscience). An LSR II (BD Biosciences) and FlowJo software (Tree Star) were used for flow cytometry and analysis. Dead cells were excluded using the Live/Dead fixable aqua dead cell stain kit (Invitrogen).
Complementary DNAs (cDNAs) were synthesized from TRIzol (Invitrogen) isolated RNA, using M-MLV Reverse Transcriptase (Promega). Real-time RT-PCR was performed with SYBRgreen master mix (Roche) and the Roche real-time PCR system (Roche480). Gene specific values were normalized to Actb for each sample.

RORγt = target: T3, RORγt (Mus musculus, UniProt P51450); assay type: cell-based
T3 construct: expressed in transfected cells; host or cells: mouse naive CD4+ T cells, retroviral MIGr vector
Protocol: as §1, §2

T2 sequence (P10275 whole entry): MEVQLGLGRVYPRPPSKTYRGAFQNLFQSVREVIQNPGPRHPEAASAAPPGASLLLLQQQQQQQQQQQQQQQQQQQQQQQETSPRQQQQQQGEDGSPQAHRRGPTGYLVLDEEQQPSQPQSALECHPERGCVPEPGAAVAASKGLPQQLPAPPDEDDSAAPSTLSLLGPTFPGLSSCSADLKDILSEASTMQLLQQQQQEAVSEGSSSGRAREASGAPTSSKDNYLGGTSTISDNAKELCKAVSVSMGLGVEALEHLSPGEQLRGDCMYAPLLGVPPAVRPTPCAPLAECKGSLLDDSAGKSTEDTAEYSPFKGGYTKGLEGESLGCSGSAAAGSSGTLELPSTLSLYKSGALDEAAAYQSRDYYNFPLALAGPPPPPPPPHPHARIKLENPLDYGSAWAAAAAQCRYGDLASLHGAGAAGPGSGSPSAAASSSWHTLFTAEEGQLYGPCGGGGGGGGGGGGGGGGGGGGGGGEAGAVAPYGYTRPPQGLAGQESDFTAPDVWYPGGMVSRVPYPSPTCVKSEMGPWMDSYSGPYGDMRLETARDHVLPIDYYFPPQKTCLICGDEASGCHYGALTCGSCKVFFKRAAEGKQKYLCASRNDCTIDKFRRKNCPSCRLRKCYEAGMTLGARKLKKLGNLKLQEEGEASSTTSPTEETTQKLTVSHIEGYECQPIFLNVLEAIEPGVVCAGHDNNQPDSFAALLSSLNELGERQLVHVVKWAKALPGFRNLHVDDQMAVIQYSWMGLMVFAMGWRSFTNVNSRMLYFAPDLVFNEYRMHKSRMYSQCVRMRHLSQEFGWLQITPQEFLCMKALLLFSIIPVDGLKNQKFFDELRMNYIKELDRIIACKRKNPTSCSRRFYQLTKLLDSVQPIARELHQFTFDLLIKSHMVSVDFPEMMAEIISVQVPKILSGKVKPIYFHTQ
T3 sequence (P51450 other isoform, or with tags, fused parts or gaps): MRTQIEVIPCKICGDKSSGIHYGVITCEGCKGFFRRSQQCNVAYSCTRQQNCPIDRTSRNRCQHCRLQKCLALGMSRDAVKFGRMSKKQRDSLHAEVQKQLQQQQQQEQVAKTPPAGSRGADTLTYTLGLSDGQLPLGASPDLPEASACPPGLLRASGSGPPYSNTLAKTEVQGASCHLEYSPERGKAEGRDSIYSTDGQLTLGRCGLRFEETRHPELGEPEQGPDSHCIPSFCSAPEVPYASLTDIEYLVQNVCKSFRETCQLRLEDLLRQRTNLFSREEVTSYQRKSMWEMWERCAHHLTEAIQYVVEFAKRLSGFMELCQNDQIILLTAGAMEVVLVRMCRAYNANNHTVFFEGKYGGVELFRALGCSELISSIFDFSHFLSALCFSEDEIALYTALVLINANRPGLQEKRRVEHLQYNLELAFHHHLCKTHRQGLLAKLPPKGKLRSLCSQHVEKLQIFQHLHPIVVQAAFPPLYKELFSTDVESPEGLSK
T1 sequence (P51450 1-495 isoform P51450-2): as the sequence (P51450 other isoform, or with tags, fused parts or gaps) above

Compound	IFN-γ-expressing cells (human memory Th17 cells)	reduction of IL-17a-expressing cells (human memory Th17 cells)	cytotoxic concentration on human cells [1]	EAE onset and severity of progression ([2]; IP daily from day 2)	percentage of IFN-γ-producing Th1 cells infiltrating the spinal cord ([2]; compared to DMSO-treated mice)	reduction of percentage of IL-17-producing T cells infiltrating the spinal cord ([2]; compared to DMSO-treated mice, day 21)	total number of mononuclear cells infiltrating the spinal cord ([2]; mouse, in vivo)	RORγt binding to sites in Il17a/f and Il23r [3]	inhibition of human androgen receptor activity (human androgen receptor)	differentiation of naive CD4+ T cells into Th1, Th2 and regulatory T cells [4]	induction of RORγt mRNA and protein expression ([4]; Th17 conditions)	transcriptional up-regulation of IL-23 receptor (IL-23R) gene ([4]; Th17 polarizing conditions)	expression of IL-17a mRNA and protein ([4]; Th17 polarizing conditions, 10 μM)	RORγt- versus RORα-mediated induction of IL-17a (RORγt)
CC1O[C@@H](OC2C(C)O[C@H](OC3C(C)O[C@@H](O[C@H]4CC[C@@]5(C)[C@H](CC[C@@H]6[C@@H]5C[C@@H](O)[C@]5(C)[C@@H](C(CO)CCO)CC[C@]65O)C4)C[C@H]3O)C[C@H]2O)C[C@@H](O)C1O (some centres unmarked) [Compound 13, 20,22-Dihydrodigoxin-21,23-diol]	little effect	40-50%	> 40 µM											
C[C@H]1O[C@@H](O[C@H]2[C@@H](O)C[C@H](O[C@H]3[C@@H](O)C[C@H](O[C@H]4CC[C@@]5(C)[C@H](CC[C@@H]6[C@@H]5C[C@@H](O)[C@]5(C)[C@@H](C7=CC(=O)OC7)CC[C@]65O)C4)O[C@@H]3C)O[C@@H]2C)C[C@H](O)[C@@H]1O [Digoxin]				not only delayed onset, but also reduced severity	approximately the same	more than 50%	markedly reduced	substantially reduced	did not inhibit	no effect	not affected	strongly inhibited	markedly reduced	suppressed RORγt—but not RORα-mediated induction of IL-17a
